The numbers were not newly measured in paper PMC4931242, “Enhancing digestibility and ethanol yield of Populus wood via expression of an engineered monolignol 4-O-methyltransferase” (Nature Communications, 2016), which cites them from elsewhere.

The term Km denotes the concentration of substrate that gives half-maximal velocity.

Each structure is given as a SMILES string.

For the data set, the target named is T1, MOMT4 (engineered monolignol 4-O-methyltransferase) (Clarkia breweri, UniProt O04385, T133L/E165I/H169F/F175I).
T1 construct: gene IEMT1; engineered quadruple active-site variant of isoeugenol 4-O-methyltransferase; purified enzyme
Kind of data set: 4-O-methylation kinetics. In kind it is biochemical. As to conditions: co-substrate SAM; s.d., n=3.

T1 sequence (O04385 whole entry T133L/E165I/H169F/F175I): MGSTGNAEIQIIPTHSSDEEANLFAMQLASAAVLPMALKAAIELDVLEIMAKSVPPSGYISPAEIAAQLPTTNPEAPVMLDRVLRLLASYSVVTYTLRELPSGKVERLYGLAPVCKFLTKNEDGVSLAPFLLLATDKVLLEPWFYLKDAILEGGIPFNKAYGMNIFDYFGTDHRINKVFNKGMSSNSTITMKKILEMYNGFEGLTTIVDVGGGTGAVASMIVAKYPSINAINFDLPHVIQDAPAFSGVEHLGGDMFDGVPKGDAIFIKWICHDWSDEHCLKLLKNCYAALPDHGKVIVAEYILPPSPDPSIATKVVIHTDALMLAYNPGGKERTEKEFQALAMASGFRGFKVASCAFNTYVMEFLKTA

Consider `COc1cc(/C=C/CO)ccc1O` [coniferyl alcohol], for which the Michaelis-Menten constant (Km) was 193 ± 24.5 µM.

As for `COc1cc(/C=C/CO)cc(OC)c1O` [sinapyl alcohol], the Km was 68.1 ± 11.1 µM.
